Measured values reported in ChEMBL document CHEMBL6127077, “Discovery and biological evaluation of 6-aryl-4-(3,4,5-trimethoxyphenyl)quinoline derivatives with promising antitumor activities as novel colchicine-binding site inhibitors” (Eur J Med Chem, 2024).
Active and inactive are the calls of the source. The rule behind the calls is not given here.

Experiments:
MCF7 = test: cells; details: Homo sapiens, MCF7, 72 h
Description: Antiproliferative activity against human MCF7 cells assessed as inhibition of cell growth incubated for 72 hrs by MTT assay

SGC-7901 = test: Antiproliferative activity against human SGC-7901 cells assessed as inhibition of cell growth incubated for 72 hrs by MTT assay; type: functional, cell-based; details: SGC-7901, 72 h
Huh-7 [1] = test: cells; details: Homo sapiens, Huh-7, 72 h
Description: Antiproliferative activity against human Huh-7 cells assessed as inhibition of cell growth incubated for 72 hrs by MTT assay

[2] = Antiproliferative activity against human MCF7/ADM cells assessed as inhibition of cell growth incubated for 72 hrs by MTT assay; type: functional, cell-based
Tubulin (Homo sapiens) [3] = target: T1, Tubulin (Homo sapiens) (UniProt P68371+Q9H4B7+P0DPH7+P68366+Q13509+Q71U36+P04350+Q3ZCM7+P07437+P68363+Q9BQE3+Q6PEY2+Q13885+Q9BVA1+Q9BUF5); test: Disruption of microtubule network in human Huh-7 cells assessed as shortened microtubule wrap around the nucleus incubated for 24 hrs by DAPI staining based microscopic analysis; type: cell-based; details: dose 30-60 nM
[4] = Cytotoxicity against human HUVEC cells incubated for 72 hrs by MTT assay; type: toxicity, cell-based
Tubulin (Homo sapiens) [5] = target: T1, Tubulin (Homo sapiens); test: Inhibition of tubulin polymerization (unknown origin) at 5 uM by infinite F500 microplate reader analysis; type: protein-complex assay
Huh-7 [6] = test: Induction of apoptosis in human Huh-7 cells assessed as late apoptotic cells at 90 nM incubated for 48 hrs by Annexin-V/PI staining based flow cytometry analysis (reference value: 4.06%); type: functional
Huh-7 [7] = test: Induction of apoptosis in human Huh-7 cells assessed as late apoptotic cells at 60 nM incubated for 48 hrs by Annexin-V/PI staining based flow cytometry analysis (reference value: 4.06%); type: functional
Huh-7 [8] = test: Induction of apoptosis in human Huh-7 cells assessed as viable cells at 90 nM incubated for 48 hrs by Annexin-V/PI staining based flow cytometry analysis (reference value: 94.8%); type: functional; details: read-out: Activity
[9] = Toxicity in male BALB/c mouse assessed as liver damage at 15 mg/kg, ip administered every 2 days for 2 weeks by H and E staining based analysis; type: organism-based; details: in vivo, 336 h
Huh-7 [10] = test: Induction of apoptosis in human Huh-7 cells assessed as necrotic cells at 120 nM incubated for 48 hrs by Annexin-V/PI staining based flow cytometry analysis (reference value: 0.60%); type: functional
Huh-7 [11] = test: Induction of cell cycle arrest in human Huh-7 cells assessed as accumulation of cells at G0/G1 phase at 90 nM incubated for 30 to 60 mins by RNase/PI staining based flow cytometry analysis (reference value: 55.08%); type: functional; details: time 30-60 min
Huh-7 [12] = test: Induction of cell cycle arrest in human Huh-7 cells assessed as accumulation of cells at S-phase at 120 nM incubated for 30 to 60 mins by RNase/PI staining based flow cytometry analysis (reference value: 36.54%); type: functional; details: time 30-60 min
Huh-7 [13] = test: Induction of apoptosis in human Huh-7 cells assessed as necrotic cells at 60 nM incubated for 48 hrs by Annexin-V/PI staining based flow cytometry analysis (reference value: 0.60%); type: functional
Huh-7 [14] = test: Induction of apoptosis in human Huh-7 cells assessed as early apoptotic cells at 120 nM incubated for 48 hrs by Annexin-V/PI staining based flow cytometry analysis (reference value: 0.56%); type: functional
Huh-7 [15] = test: Induction of cell cycle arrest in human Huh-7 cells assessed as accumulation of cells at G0/G1 phase at 60 nM incubated for 30 to 60 mins by RNase/PI staining based flow cytometry analysis (reference value: 55.08%); type: functional; details: time 30-60 min
Huh-7 [16] = test: Induction of apoptosis in human Huh-7 cells assessed as viable cells at 120 nM incubated for 48 hrs by Annexin-V/PI staining based flow cytometry analysis (reference value: 94.8%); type: functional; details: read-out: Activity
Huh-7 [17] = test: Induction of cell cycle arrest in human Huh-7 cells assessed as accumulation of cells at G0/G1 phase at 120 nM incubated for 30 to 60 mins by RNase/PI staining based flow cytometry analysis (reference value: 55.08%); type: functional; details: time 30-60 min
Tubulin (Homo sapiens) [18] = target: T1, Tubulin (Homo sapiens); test: Inhibition of tubulin polymerization (unknown origin) at 3 to 5 uM by infinite F500 microplate reader analysis; type: protein-complex assay; details: dose 3-5 µM
Huh-7 [19] = test: Induction of apoptosis in human Huh-7 cells assessed as early apoptotic cells at 90 nM incubated for 48 hrs by Annexin-V/PI staining based flow cytometry analysis (reference value: 0.56%); type: functional
Huh-7 [20] = test: Induction of cell cycle arrest in human Huh-7 cells assessed as accumulation of cells at G2M phase at 60 nM incubated for 30 to 60 mins by RNase/PI staining based flow cytometry analysis (reference value: 8.38%); type: functional; details: time 30-60 min
Tubulin (Homo sapiens) [21] = target: T1, Tubulin (Homo sapiens); test: Binding affinity to Tubulin (unknown origin) colchicine binding site assessed as reduction in colchicine-tubulin complex formation by Fluorescence based analysis; type: protein-complex assay; details: dose 2-6 µM
[22] = Toxicity in male BALB/c mouse assessed as body weight loss at 15 mg/kg, ip administered every 2 days for 2 weeks; type: organism-based; details: in vivo, 336 h
Huh-7 [23] = test: Induction of cell cycle arrest in human Huh-7 cells assessed as accumulation of cells at S-phase at 60 nM incubated for 30 to 60 mins by RNase/PI staining based flow cytometry analysis (reference value: 36.54%); type: functional; details: time 30-60 min
Huh-7 [24] = test: Antitumor activity against human Huh-7 cells xenografted in male BALB/c mouse at 15 mg/kg, ip administered every 2 days for 2 weeks; type: functional, organism-based
Huh-7 [25] = test: Induction of apoptosis in human Huh-7 cells assessed as necrotic cells at 90 nM incubated for 48 hrs by Annexin-V/PI staining based flow cytometry analysis (reference value: 0.60%); type: functional
Huh-7 [26] = test: Induction of cell cycle arrest in human Huh-7 cells assessed as accumulation of cells at G2M phase at 90 nM incubated for 30 to 60 mins by RNase/PI staining based flow cytometry analysis (reference value: 8.38%); type: functional; details: time 30-60 min
Huh-7 [27] = test: Induction of apoptosis in human Huh-7 cells assessed as early apoptotic cells at 60 nM incubated for 48 hrs by Annexin-V/PI staining based flow cytometry analysis (reference value: 0.56%); type: functional
Huh-7 [28] = test: Induction of apoptosis in human Huh-7 cells assessed as late apoptotic cells at 120 nM incubated for 48 hrs by Annexin-V/PI staining based flow cytometry analysis (reference value: 4.06%); type: functional
Huh-7 [29] = test: Induction of apoptosis in human Huh-7 cells assessed as viable cells at 60 nM incubated for 48 hrs by Annexin-V/PI staining based flow cytometry analysis (reference value: 94.8%); type: functional; details: read-out: Activity
Tubulin (Homo sapiens) [30] = target: T1, Tubulin (Homo sapiens); test: Inhibition of tubulin polymerization (unknown origin) by infinite F500 microplate reader analysis; type: protein-complex assay; details: dose 3-5 µM
Huh-7 [31] = test: Induction of cell cycle arrest in human Huh-7 cells assessed as accumulation of cells at S-phase at 90 nM incubated for 30 to 60 mins by RNase/PI staining based flow cytometry analysis (reference value: 36.54%); type: functional; details: time 30-60 min
Huh-7 [32] = test: Induction of cell cycle arrest in human Huh-7 cells assessed as accumulation of cells at G2M phase at 120 nM incubated for 30 to 60 mins by RNase/PI staining based flow cytometry analysis (reference value: 8.38%); type: functional; details: time 30-60 min

SMILES: COc1cc(-c2ccnc3ccc(-c4ccc(Cl)cc4)cc23)cc(OC)c1OC
- IC50 (MCF7): 16200 nM
- IC50 (SGC-7901): 12100 nM
- IC50 (Huh-7 [1]): 4560 nM

SMILES: COc1ccc(/C=C\c2cc(OC)c(OC)c(OC)c2)cc1O [COMBRETASTATIN A4]
- IC50 (MCF7): 87 nM
- IC50 [2]: 2000 nM
- IC50 (SGC-7901): 120 nM
- Activity (Tubulin (Homo sapiens) [3]): Dose-Dependent Effect
- IC50 (Huh-7 [1]): 79 nM
- IC50 at 72 h [4]: 320 nM

SMILES: COc1cc(-c2ccnc3ccc(-c4ccsc4)cc23)cc(OC)c1OC
- IC50 (MCF7): 2240 nM
- IC50 (SGC-7901): 1780 nM
- IC50 (Huh-7 [1]): 270 nM

SMILES: COc1cc(-c2ccnc3ccc(-c4ccc(C)c(C)c4)cc23)cc(OC)c1OC
- IC50 (MCF7): 1340 nM
- IC50 (SGC-7901): 2150 nM
- IC50 (Huh-7 [1]): 3670 nM

SMILES: COc1cc(-c2ccnc3ccc(-c4ccc5ccccc5c4)cc23)cc(OC)c1OC
- IC50 (MCF7): > 100000 nM
- IC50 (SGC-7901): 1360 nM
- IC50 (Huh-7 [1]): 4450 nM

SMILES: CC(=O)O[C@H]1C(=O)[C@@]2(C)[C@H]([C@H](OC(=O)c3ccccc3)[C@]3(O)C[C@H](OC(=O)[C@H](O)[C@@H](NC(=O)c4ccccc4)c4ccccc4)C(C)=C1C3(C)C)[C@]1(OC(C)=O)CO[C@@H]1C[C@@H]2O
- inhibition (Tubulin (Homo sapiens) [5]): Active

SMILES: COc1ccc(-c2ccc3nccc(-c4cc(OC)c(OC)c(OC)c4)c3c2)cc1
- IC50 (MCF7): 330 nM
- IC50 (SGC-7901): 1380 nM
- IC50 (Huh-7 [1]): 40 nM

SMILES: COc1ccc(-c2ccc3nccc(-c4cc(OC)c(OC)c(OC)c4)c3c2)cc1OC
- IC50 (MCF7): 960 nM
- IC50 (SGC-7901): 880 nM
- IC50 (Huh-7 [1]): 80 nM

SMILES: COc1cc(-c2ccnc3ccc(-c4ccccc4C)cc23)cc(OC)c1OC
- IC50 (MCF7): > 100000 nM
- IC50 (SGC-7901): > 100000 nM
- IC50 (Huh-7 [1]): 39800 nM

SMILES: COc1ccccc1-c1ccc2nccc(-c3cc(OC)c(OC)c(OC)c3)c2c1
- IC50 (MCF7): > 100000 nM
- IC50 (SGC-7901): 17300 nM
- IC50 (Huh-7 [1]): 4690 nM

SMILES: COc1cc(-c2ccnc3ccc(-c4cccc(C)c4)cc23)cc(OC)c1OC
- IC50 (MCF7): 17900 nM
- IC50 (SGC-7901): 35000 nM
- IC50 (Huh-7 [1]): 1320 nM

SMILES: COc1cc(-c2ccnc3ccc(-c4cccc5[nH]ccc45)cc23)cc(OC)c1OC
- Activity (Huh-7 [6]): 20.1%
- Activity (Huh-7 [7]): 6.27%
- IC50 (MCF7): 130 nM
- viability at 0.09 µM (Huh-7 [8]): 72.5%
- IC50 [2]: 520 nM
- Activity [9]: Non-Toxic
- Activity (Huh-7 [10]): 2.45%
- Activity (Huh-7 [11]): 47.21%
- Activity (Huh-7 [12]): 42.03%
- Activity (Huh-7 [13]): 1.58%
- Activity (Huh-7 [14]): 4.73%
- Activity (Huh-7 [15]): 53.2%
- viability at 0.12 µM (Huh-7 [16]): 63.5%
- Activity (Huh-7 [17]): 9.25%
- inhibition (Tubulin (Homo sapiens) [18]): Active
- Activity (Huh-7 [19]): 4.05%
- Activity (Huh-7 [20]): 9.39%
- Activity (Tubulin (Homo sapiens) [21]): Dose-Dependent Effect
- Activity [22]: Non-Toxic
- Activity (Huh-7 [23]): 37.41%
- Activity (Huh-7 [24]): Active
- Activity (Huh-7 [25]): 3.39%
- Activity (Huh-7 [26]): 28.14%
- Activity (Huh-7 [27]): 1.05%
- Activity (Huh-7 [28]): 29.3%
- viability at 0.06 µM (Huh-7 [29]): 91.1%
- IC50 (SGC-7901): 180 nM
- Activity (Tubulin (Homo sapiens) [3]): Dose-Dependent Effect
- inhibition (Tubulin (Homo sapiens) [30]): Dose-Dependent Effect
- Activity (Huh-7 [31]): 24.65%
- IC50 (Huh-7 [1]): 30 nM
- IC50 at 72 h [4]: 5820 nM
- Activity (Huh-7 [32]): 48.72%
